# Test results taken from patent US20110262508A1, “ANTIMICROBIAL COMPOSITIONS, FORMULATIONS AND USES THEREOF” (priority 2007, published 2011).
# Where two headings read alike, the source gives them in different places. Peptide text beside a SMILES is read from it.
# How the values were obtained:
# Type in all cases: cell-based
# [1] = test system: S. typhimurium strain AroA
# Method: Synthetic peptides were tested for their ability to inhibit bacterial growth in liquid culture. […] 19606, Acinetobacter spp. ATCC 17903, Acinetobacter spp. ATCC 19004, Escherichia coli strain BL21, S. aureus, S. typhimurium strain AroA, P. aeruginosa or P. pneumotropica. After 5-6 hours of shaking at 37° C., growth was measured as absorbance at 595 nm. As a control, cultures were grown in the presence of 0.1% acetonitrile (i.e., the concentration present in 10 μM peptide).
# [2] = test system: A. baumannii ATCC 19606, Acinetobacter spp. ATCC 17903, Acinetobacter spp. ATCC 19004, E. coli BL21, S. aureus, S. typhimurium AroA, P. aeruginosa, P. …; assay: Antibacterial spectrum over the serial dilution panel (Table 6); details: summary of Table 6
# Method: Synthetic peptides were tested for their ability to inhibit bacterial growth in liquid culture. The peptides were added at a concentration of between about 5 μM and about 10 μM to individual wells of 96-deep-well dishes that contained liquid growth media freshly inoculated with one of the following bacteria: A. baumannii ATCC Accession No. 19606, Acinetobacter spp. ATCC 17903, Acinetobacter spp. ATCC 19004, Escherichia coli strain BL21, S. aureus, S. typhimurium strain AroA, P. aeruginosa or P. pneumotropica. After 5-6 hours of shaking at 37° C., growth was measured as absorbance at 595 nm. As a control, cultures were grown in the presence of 0.1% acetonitrile (i.e., the concentration present in 10 μM peptide).
# A. baumannii = test system: A. baumannii
# Text: Broth dilution methods are e.g., described by Lorian (2007) In: Antibiotics in Laboratory Medicine, Fifth Edition; and In: Clinical and Laboratory Standards Institute, CLSI (formerly NCCLS), In: Methods for Dilution Antimicrobial Susceptibility Tests for Bacteria that Grow Aerobically—Approved Standard—Seventh Edition, CLSI document M7-A7, Villanova, Pa. (NCCLS; January 2006; Vol. 26 No. 2); and In: Clinical and Laboratory Standards Institute, CLSI (formerly NCCLS), Performance Standards for Antimicrobial Susceptibility Testing, Seventeenth Informational Supplement, M100-S17, Vol 27 No. 1 January 2007, all of which are incorporated herein by reference.
# The present inventors used such methods to quantitate activity in vitro of antimicrobial peptides of the invention against bacterial isolates, including laboratory strains and 50 clinical isolates of A. baumannii, and S. aureus ATCC Accession No. 2992. Briefly, small volumes of broth are dispensed in sterile, plastic microtiter trays, and 100 μl of serially-diluted antimicrobial peptide (0.1-64 μg) and 100 μl test organism (approximately 1×10^5 C.F.U.), are added. Following aerobic incubation overnight at 35±2° C. Control samples lacked peptide (Growth control), or lacked peptide and bacteria (Sterility control). The trays were examined visually and the minimal inhibitory concentration (MIC) of peptide required to inhibit bacterial growth were determined. The minimum bactericidal concentration (MBC) was estimated by sub-culturing the wells for which no bacterial growth was visible to the naked eye, to thereby determine a concentration of antimicrobial that reduces the original inoculum by at least about 99.9%.
smiles,measurement,setting,value
CC[C@H](C)[C@H](NC(=O)[C@H](CS)NC(=O)[C@H](CCCCN)NC(=O)[C@H](CC(C)C)NC(=O)[C@H](Cc1ccccc1)NC(=O)[C@H](CC(=O)O)NC(=O)[C@H](CC(C)C)NC(=O)[C@H](CCCNC(=N)N)NC(=O)[C@H](CC(N)=O)NC(=O)[C@H](Cc1ccccc1)NC(=O)CNC(=O)[C@@H](NC(=O)[C@@H](NC(=O)[C@H](Cc1c[nH]cn1)NC(=O)[C@H](CC(N)=O)NC(=O)[C@@H](NC(=O)[C@@H](NC(=O)[C@H](Cc1c[nH]cn1)NC(=O)[C@H](Cc1ccccc1)NC(=O)[C@H](CO)NC(=O)[C@@H](NC(=O)[C@@H](N)Cc1ccccc1)C(C)C)[C@@H](C)O)[C@@H](C)O)C(C)C)[C@@H](C)CC)C(=O)N[C@@H](CO)C(=O)O [Ac3] (H-FVSFHTTNHVIGFNRLDFLKCIS-OH; N-terminus and C-terminus assumed),% inhibition of bacterial growth by peptide,[1]; 5 μM peptide,2%
same,% inhibition of bacterial growth by peptide,[1]; 10 μM peptide,2%
same,% inhibition of bacterial growth by peptide,[1]; 15 μM peptide,6%
same,% inhibition of bacterial growth by peptide,[1]; 20 μM peptide,18%
same,"selectively inhibited growth of A. baumannii ATCC Accession No. 19606, Acinetobacter spp. ATCC 17903, Acinetobacter spp. ATCC 19004, and S. aureus",[2],selectively inhibited growth
CC[C@H](C)[C@H](NC(=O)[C@H](CCCCN)NC(=O)[C@H](CO)NC(=O)[C@H](CC(C)C)NC(=O)[C@@H](N)CC(C)C)C(=O)N[C@@H](CCCNC(=N)N)C(=O)N[C@@H](C)C(=O)N[C@@H](CC(C)C)C(=O)N[C@@H](CCCNC(=N)N)C(=O)N[C@@H](CCCNC(=N)N)C(=O)N[C@@H](CCCNC(=N)N)C(=O)N[C@@H](CCCNC(=N)N)C(=O)N[C@@H](Cc1ccccc1)C(=O)NCC(=O)N[C@@H](CCC(N)=O)C(=O)N[C@@H](CO)C(=O)N[C@@H](CC(=O)O)C(=O)N[C@@H](CCCCN)C(=O)N[C@@H](CCCNC(=N)N)C(=O)N[C@H](C(=O)N[C@@H](CO)C(=O)N[C@@H](Cc1ccc(O)cc1)C(=O)N[C@@H](CCCCN)C(=O)O)[C@@H](C)CC [Ac16] (H-LLSKIRALRRRRFGQSDKRISYK-OH),"selectively inhibited growth of A. baumannii ATCC Accession No. 19606, Acinetobacter spp. ATCC 17903 and Acinetobacter spp. ATCC 19004",[2],selectively inhibited growth
same,MIC (μM) for non-amidated Peptide,A. baumannii,10 to 15 µM
CC[C@H](C)[C@H](NC(=O)[C@H](Cc1c[nH]c2ccccc12)NC(=O)[C@H](CC(=O)O)NC(=O)[C@H](CO)NC(=O)[C@H](CS)NC(=O)[C@H](CC(C)C)NC(=O)[C@H](CC(C)C)NC(=O)[C@H](C)NC(=O)[C@H](CS)NC(=O)[C@H](CCCNC(=N)N)NC(=O)[C@H](CC(C)C)NC(=O)[C@H](CCCNC(=N)N)NC(=O)[C@H](C)NC(=O)CN)C(=O)N[C@H](C(=O)N[C@@H](CO)C(=O)N[C@@H](CS)C(=O)N[C@@H](CCCNC(=N)N)C(=O)N[C@@H](CC(C)C)C(=O)N[C@@H](CC(C)C)C(=O)NCC(=O)N[C@H](C(=O)N[C@@H](CC(N)=O)C(=O)O)C(C)C)C(C)C [Ac40] (H-GARLRCALLCSDWIVSCRLLGVN-OH; N-terminus and C-terminus assumed),"selectively inhibited growth of A. baumannii ATCC Accession No. 19606, Acinetobacter spp. ATCC 17903, Acinetobacter spp. ATCC 19004, and S. aureus",[2],selectively inhibited growth
same,MIC (μM) for amidated peptide,A. baumannii,10 to 15 µM
same,MIC (μM) for non-amidated Peptide,A. baumannii,10 to 15 µM
C[C@@H](O)[C@H](NC(=O)[C@H](CS)NC(=O)[C@H](CO)NC(=O)[C@@H](N)Cc1c[nH]cn1)C(=O)N[C@H](C(=O)N1CCC[C@H]1C(=O)N[C@@H](CC(N)=O)C(=O)N[C@H](C(=O)N1CCC[C@H]1C(=O)N[C@@H](CCC(N)=O)C(=O)N[C@@H](CCC(N)=O)C(=O)N1CCC[C@H]1C(=O)N[C@@H](Cc1c[nH]cn1)C(=O)N1CCC[C@H]1C(=O)N[C@@H](Cc1c[nH]cn1)C(=O)N[C@@H](Cc1c[nH]cn1)C(=O)N[C@@H](CCCNC(=N)N)C(=O)N[C@@H](Cc1c[nH]cn1)C(=O)N[C@@H](CCCNC(=N)N)C(=O)N[C@@H](CCCNC(=N)N)C(=O)N[C@@H](Cc1c[nH]cn1)C(=O)N[C@@H](CCCNC(=N)N)C(=O)N[C@@H](Cc1c[nH]cn1)C(=O)O)[C@@H](C)O)[C@@H](C)O [Ac46] (H-HSCTTPNTPQQPHPHHRHRRHRH-OH; N-terminus and C-terminus assumed),% inhibition of bacterial growth by peptide,[1]; 5 μM peptide,3%
same,% inhibition of bacterial growth by peptide,[1]; 10 μM peptide,16%
same,% inhibition of bacterial growth by peptide,[1]; 15 μM peptide,18%
same,% inhibition of bacterial growth by peptide,[1]; 20 μM peptide,36%
same,"selectively inhibited growth of Acinetobacter spp. ATCC 19004, and S. aureus",[2],selectively inhibited growth
CC[C@H](C)[C@H](NC(=O)[C@H](CCCNC(=N)N)NC(=O)[C@H](CCCNC(=N)N)NC(=O)[C@H](CS)NC(=O)CNC(=O)[C@H](CO)NC(=O)[C@@H](NC(=O)[C@@H](NC(=O)[C@H](CC(=O)O)NC(=O)[C@H](CCCCN)NC(=O)[C@@H](NC(=O)[C@H](CS)NC(=O)[C@@H](NC(=O)[C@@H](N)Cc1ccccc1)C(C)C)C(C)C)[C@@H](C)O)[C@@H](C)CC)C(=O)N[C@H](C(=O)NCC(=O)N[C@@H](Cc1ccccc1)C(=O)N[C@@H](CS)C(=O)N[C@H](C(=O)NCC(=O)N[C@@H](Cc1c[nH]c2ccccc12)C(=O)N[C@@H](CCCNC(=N)N)C(=O)N[C@@H](CC(C)C)C(=O)O)C(C)C)[C@@H](C)O [Ac102] (H-FVCVKDTISGCRRITGFCVGWRL-OH; N-terminus and C-terminus assumed),"selectively inhibited growth of Acinetobacter spp. ATCC 19004, and S. aureus",[2],selectively inhibited growth
CC[C@H](C)[C@H](NC(=O)[C@H](CCCNC(=N)N)NC(=O)[C@H](CCCNC(=N)N)NC(=O)[C@H](CS)NC(=O)CN)C(=O)N[C@H](C(=O)NCC(=O)N[C@@H](Cc1ccccc1)C(=O)N[C@@H](CS)C(=O)N[C@H](C(=O)NCC(=O)N[C@@H](Cc1c[nH]c2ccccc12)C(=O)N[C@@H](CCCNC(=N)N)C(=O)N[C@@H](CC(C)C)C(=O)N[C@@H](CC(C)C)C(=O)N[C@@H](CC(C)C)C(=O)N[C@@H](CC(C)C)C(=O)N[C@@H](CC(C)C)C(=O)N[C@H](C(=O)NCC(=O)N[C@@H](CO)C(=O)NCC(=O)N[C@H](C(=O)O)C(C)C)[C@@H](C)O)C(C)C)[C@@H](C)O [Ac103] (H-GCRRITGFCVGWRLLLLLTGSGV-OH; N-terminus and C-terminus assumed),selectively inhibited growth of S. aureus,[2],selectively inhibited growth
CC[C@H](C)[C@H](NC(=O)[C@H](CC(C)C)NC(=O)[C@H](CCCCN)NC(=O)[C@@H](N)Cc1ccccc1)C(=O)N1CCC[C@H]1C(=O)N[C@H](C(=O)N[C@@H](CCCNC(=N)N)C(=O)N[C@@H](CCCNC(=N)N)C(=O)N[C@@H](CO)C(=O)N[C@@H](CO)C(=O)N[C@@H](CC(C)C)C(=O)N[C@H](C(=O)N[C@@H](CCCCN)C(=O)N[C@@H](CO)C(=O)N[C@@H](CC(C)C)C(=O)N1CCC[C@H]1C(=O)N[C@@H](C)C(=O)N[C@@H](Cc1ccccc1)C(=O)N[C@@H](CCCNC(=N)N)C(=O)N[C@@H](CCCNC(=N)N)C(=O)N[C@@H](CCCCN)C(=O)N[C@@H](C)C(=O)N1CCC[C@H]1C(=O)O)C(C)C)[C@@H](C)O [Ac116] (H-FKLIPTRRSSLVKSLPAFRRKAP-OH; N-terminus and C-terminus assumed),selectively inhibited growth of Acinetobacter spp. ATCC 19004,[2],selectively inhibited growth
"CC[C@H](C)[C@H](NC(=O)CN)C(=O)NCC(=O)N[C@@H](CCCCN)C(=O)N[C@@H](Cc1ccccc1)C(=O)N[C@@H](CC(C)C)C(=O)N[C@@H](Cc1c[nH]cn1)C(=O)N[C@@H](CO)C(=O)N[C@@H](C)C(=O)N[C@@H](CCCCN)C(=O)N[C@@H](CCCCN)C(=O)N[C@@H](Cc1ccccc1)C(=O)NCC(=O)N[C@@H](CCCCN)C(=O)N[C@@H](C)C(=O)N[C@@H](Cc1ccccc1)C(=O)N[C@H](C(=O)NCC(=O)N[C@@H](CCC(=O)O)C(=O)N[C@H](C(=O)N[C@@H](CCSC)C(=O)N[C@@H](CC(N)=O)C(=O)N[C@@H](CO)C(=O)O)[C@@H](C)CC)C(C)C [Ac178, reference compound] (H-GIGKFLHSAKKFGKAFVGEIMNS-OH; N-terminus and C-terminus assumed)",selectively inhibited growth of S. aureus,[2],selectively inhibited growth
